Assays:
BRD3 = experiment: target protein degradation by immunoblotting (Experimental Example 6); assay type: cell-based, human, mouse; conditions: HEK293T, LNcap and MEF cell lines, 24 hours
Experimental: (§1) In order to evaluate the target proteion degradation efficacy by Examples 14 to 33 according the disclosure, the following experiment was conducted.
(§2) First, as cell lines primarily expressing the target protein, Human kidney-derived cancer cells, HEK293T (ATCC, CRL-3216), human prostate-derived cancer cells, LNcap (Korean Cell Line Bank, Korean Cell Line Research Foundation, KCLB No. 80018), mouse embryonic fibroblast, MEF (ATCC, SCRC-1008), human cervical cancer cells, HeLa (Korean Cell Line Bank, Korean Cell Line Research Foundation, KCLB No. 10002), human blood-derived cells, K562 (Korean Cell Line Bank, Korean Cell Line Research Foundation, KCLB No. 10243), human blood-derived cells, THP-1 (Korean Cell Line Bank, Korean Cell Line Research Foundation, KCLB No. 40202), human lung-derived cancer cells, A549 (Korean Cell Line Bank, Korean Cell Line Research Foundation, KCLB No. 10185), human breast-derived cancer cells, MCF7 (Korean Cell Line Bank, Korean Cell Line Research Foundation, KCLB No. 30022), human neuroblastoma, SH-SY5Y cell lines (Korean Cell Line Bank, Korean Cell Line Research Foundation, KCLB No. 22266), human pancreatic cancer cells, PANC-1 (Korean Cell Line Bank, Korean Cell Line Research Foundation, KCLB No. 21469) were cultured, respectively, in an incubator maintained at 5% carbon dioxide, using DMEM containing 10% FBS and 1% streptomycin/penicillin, RPMI1640, or MEM medium, and then the respective cells were dispensed in 12-well plate. Additional incubation was performed for 24 hours to ensure that each cell completely fixed to the surface of the plate.
(§3) In order to confirm whether Compounds A to W of Examples 14 to 33 degrade the target protein respectively, the cultured cells were treated with the compound of each example for 24 hours and then collected.
(§4) In this case, HEK293T, which is human kidney-derived cancer cells, LNcap, which is human prostate-derived cancer cells, and MEF cell line, which is mouse embryonic fibroblasts, were treated with Example 14 (Compound A). […]

BRD4 = experiment: as above; assay type: cell-based, human, mouse; conditions: HEK293T, LNcap and MEF cell lines, 24 hours
Experimental: as §1, §2, §3, §4

BRD2 = experiment: as above; assay type: cell-based, human, mouse; conditions: HEK293T, LNcap and MEF cell lines, 24 hours
Experimental: as §1, §2, §3, §4

PDE4 = experiment: as above; assay type: cell-based, human; conditions: HEK293T, 24 hours
Experimental: as §1, §2, §3
(§5) In this case, HEK293T, which is human kidney-derived cancer cells, LNcap, which is human prostate-derived cancer cells, and MEF cell line, which is mouse embryonic fibroblasts, were treated with Example 14 (Compound A). HEK293T, which is human kidney-derived cancer cells, was treated with Example 15 (Compound B). HEK293T cell line, which is human kidney-derived cancer cells, and HeLa cell line, which is cervical-derived cancer cells, were treated with Example 16 (Compound C). HEK293T cell line, which is human kidney-derived cancer cells, was treated with Example 17 (Compound D). K562 cell line, which is human blood-derived cells, was treated with Example 18 (Compound E). HEK293T cell line, which is human kidney-derived cancer cells, was treated with Example 19 (Compound F). THP-1 cell line, which is human blood-derived cells, was treated with Example 20 (Compound G). A549 cell line, which is human lung-derived cancer cells, was treated with Example 21 (Compound H). A549 cell line, which is human lung-derived cancer cells, was treated with Example 22 (Compound I). MCF7 cell line, which is human breast-derived cancer cells, was treated with Example 23 (Compound J). HEK293T cell line, which is […], was treated with Example 24 (Compound L). SH-SY5Y, which is human neuroblastoma, and HeLa cell line, which is cervical-derived cancer cells, were treated with Example 25 (Compound M). THP-1 cell line, which is human blood-derived cells, was treated with Example 26 (Compound P). SH-SY5Y, which is human neuroblastoma, and HeLa cell line, which is cervical-derived cancer cells, were treated with Example 27 (Compound Q). SH-SY5Y, which is human neuroblastoma, and HeLa cell line, which is cervical-derived cancer cells, were treated with Example 28 (Compound R). HeLa cell line, a human cervical-derived cancer cell, was treated with Example 29 (Compound S). SH-SY5Y cell line, which is human neuroblastoma, was treated with Example 30 (Compound T). SH-SY5Y cell line, which is human neuroblastoma, was treated with Example 31 (Compound U). PANC-1 cell line, which is human pancreatic-derived cancer cells, was treated with Example 32 (Compound V). […]

ACVR1 = target: T1, ACVR1 (Homo sapiens, UniProt Q04771); experiment: as above; assay type: cell-based; conditions: HEK293T and HeLa cell lines, 24 hours
T1 construct: as cell lines primarily expressing the target protein; endogenous in cells; host or cells: HEK293T, HeLa
T1 sequence (Q04771 21-509): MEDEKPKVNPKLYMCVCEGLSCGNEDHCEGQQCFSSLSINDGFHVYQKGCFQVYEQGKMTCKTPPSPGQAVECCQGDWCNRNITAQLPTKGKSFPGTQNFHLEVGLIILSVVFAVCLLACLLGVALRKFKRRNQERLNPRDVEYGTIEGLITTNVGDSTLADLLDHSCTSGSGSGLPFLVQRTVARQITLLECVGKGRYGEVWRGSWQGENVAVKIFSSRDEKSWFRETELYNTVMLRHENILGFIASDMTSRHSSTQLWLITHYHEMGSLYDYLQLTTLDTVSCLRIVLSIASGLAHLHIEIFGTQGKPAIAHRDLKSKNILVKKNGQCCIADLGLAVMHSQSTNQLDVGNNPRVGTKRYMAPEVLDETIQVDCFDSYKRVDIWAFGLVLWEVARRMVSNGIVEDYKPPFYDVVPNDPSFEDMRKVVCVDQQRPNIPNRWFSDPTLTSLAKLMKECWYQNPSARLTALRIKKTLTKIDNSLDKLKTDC
Experimental: as §1, §2, §3, §5

Chk1 = target: T2, Chk1 (Homo sapiens, UniProt O14757); experiment: as above; assay type: cell-based; conditions: HEK293T cell line, 24 hours
T2 construct: as cell lines primarily expressing the target protein; endogenous in cells; host or cells: HEK293T
T2 sequence (O14757 whole entry): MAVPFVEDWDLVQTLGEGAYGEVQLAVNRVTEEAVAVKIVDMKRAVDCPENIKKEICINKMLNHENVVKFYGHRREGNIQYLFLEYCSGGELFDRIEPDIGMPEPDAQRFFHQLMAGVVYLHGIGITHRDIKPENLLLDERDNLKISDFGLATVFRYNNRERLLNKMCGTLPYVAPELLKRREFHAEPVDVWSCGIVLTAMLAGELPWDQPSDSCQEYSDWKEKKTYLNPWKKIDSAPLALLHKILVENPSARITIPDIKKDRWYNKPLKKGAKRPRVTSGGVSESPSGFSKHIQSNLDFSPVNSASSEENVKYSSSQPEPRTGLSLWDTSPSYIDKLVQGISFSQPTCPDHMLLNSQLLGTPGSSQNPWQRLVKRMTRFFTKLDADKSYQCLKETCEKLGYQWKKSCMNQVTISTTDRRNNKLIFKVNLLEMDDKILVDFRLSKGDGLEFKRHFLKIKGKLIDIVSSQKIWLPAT
Experimental: as §1, §2, §3, §5

[1] = test system: p62 and each target protein; experiment: p62-mediated delivery of target proteins to autophagy by immunofluorescence staining and confocal microscopy; assay type: cell-based; conditions: cells cultured 24 hours with compound
Experimental: In order to confirm the efficacy of P62-mediated delivery of target proteins to autophagy after treatment with the example compounds of the disclosure, immunofluorescence staining was performed by using p62 and each target protein as markers. The cover glass was placed on a 24-well plate for immunofluorescence staining, cell lines primarily expressing the target protein or gene recombinant cell lines were cultured. The cells were dispensed and cultured 24 hours, and then treated with Example 1 (ATCRET-1104), Example 5 (Anle138b F105), Example 7 (Vinclozolin 2204), Example 8 (PHTPP 1304), Example 9 (Baicalein 2204), Example 10 (Resveratrol 1105), Example Example 11 (BTA-1 1104), Example 30 (Compound T) according to the disclosure, respectively. The cells were further cultured for 24 hours for the action of the compounds, the medium was removed, and the cells were fixed using formaldehyde at room temperature. In order to prevent non-specific staining, the cells were reacted with the blocking solution at room temperature for 1 hour, and then the p62 antibody and target protein antibody diluted at a certain ratio were treated using the block solution, and then reacted at room temperature for 1 hour. […]

Tau = experiment: target protein degradation by immunoblotting (Experimental Example 6); assay type: cell-based, human; conditions: SH-SY5Y cell line, 24 hours
Experimental: as §1, §2, §3, §5

p-53 = target: T3, p-53 (Homo sapiens, UniProt P04637, R273H); experiment: as above; assay type: cell-based; conditions: PANC-1 cell line, 24 hours
T3 construct: endogenous in cells; host or cells: PANC-1
Experimental: as §1, §2, §3, §5

Cc1sc2c(c1C)C(c1ccc(Cl)cc1)=N[C@@H](CC(=O)NCCOCCOCCNC[C@@H](O)COc1ccc(OCc3ccccc3)c(OCc3ccccc3)c1)c1nnc(C)n1-2 [Example 14, N-(2-(2-(2-(((R)-3-(3,4-bis(benzyloxy)phenoxy)-2-hydroxypropyl)amino)ethoxy)ethoxy)ethyl)-2-((S)-4-(4-chlorophenyl)-2,3,9-trimethyl-6H-thieno[3,2-f][1,2,4]triazolo[4,3-a][1,4]diazepin-6-yl)acetamide]
degradation of target protein BRD3 (decrease in level vs Control) (BRD3): can be degraded
degradation of target protein BRD4 (decrease in level vs Control) (BRD4): can be degraded
degradation of target protein BRD2 (decrease in level vs Control) (BRD2): can be degraded

COc1ccc([C@]2(C#N)CC[C@@H](C(=O)NCCOCCOCCNCc3ccc(OCc4ccccc4)c(OCc4ccccc4)c3)CC2)cc1OC1CCCC1 [Example 15, (1s,4s)-N-(2-(2-(2-((3,4-bis(benzyloxy)benzyl)amino)ethoxy)ethoxy)ethyl)-4-cyano-4-(3-(cyclopentyloxy)-4-methoxyphenyl)cyclohexane-1-carboxamide]
degradation of target protein PDE4 (decrease in level vs Control) (PDE4): can be degraded

O[C@H](CNCCOCCOCCN1CCN(c2ccc(-c3cnc4c(-c5cccc6ncccc56)cnn4c3)cc2)CC1)COc1cccc(OCCc2ccccc2)c1 [Example 16, (R)-1-(3-phenethoxyphenoxy)-3-((2-(2-(2-(4-(4-(3-(quinolin-5-yl)pyrazolo[1,5-a]pyrimidin-6-yl)phenyl)piperazin-1-yl)ethoxy)ethoxy)ethyl)amino)propan-2-ol]
degradation of target protein ACVR1 (decrease in level vs Control) (ACVR1): can be degraded

NC(=O)Nc1cc(-c2cccc(F)c2)sc1C(=O)N[C@H]1CCCN(CCOCCOCCNC[C@@H](O)COc2cccc(OCCc3ccccc3)c2)C1 [Example 17, 5-(3-fluorophenyl)-N—((S)-1-(2-(2-(2-(((R)-2-hydroxy-3-(3-phenethoxyphenoxy)propyl)amino)ethoxy)ethoxy)ethyl)piperidin-3-yl)-3-ureidothiophene-2-carboxamide]
degradation of target protein Chk1 (decrease in level vs Control) (Chk1): can be degraded

O=C(CCCc1ccccc1)NCCOCCOCCOCCNC[C@@H](O)COc1cccc(OCc2ccc(F)cc2)c1 [Example 30, (R)—N-(15-(3-((4-fluorobenzyl)oxy)phenoxy)-14-hydroxy-3,6,9-trioxa-12-azapentadecyl)-4-phenylbutanamide]
intracellular puncta formation of p62 proteins and of target proteins, and local co-existence thereof [1]: increase gradually
degradation of target protein Tau (decrease in level vs Control) (Tau): can be degraded

CN(CCOCCOCCOCCNC[C@@H](O)COc1ccc(OCc2ccc(F)cc2)c(OCc2ccc(F)cc2)c1)c1ccc2nc3ccc(=[N+](C)C)cc-3sc2c1 [Example 32, (R)—N-(7-((15-(3,4-bis((4-fluorobenzyl)oxy)phenoxy)-14-hydroxy-3,6,9-trioxa-12-azapentadecyl) (methyl)amino)-3H-phenothiazin-3-ylidene)-N-methylmethanaminium 2,2,2-trifluoroacetate]
degradation of target protein p-53 (decrease in level vs Control) (p-53): can be degraded

CN(CCOCCOCCOCCNC[C@@H](O)COc1cccc(OCc2ccc(F)cc2)c1)c1ccc2nc3ccc(=[N+](C)C)cc-3sc2c1.O=C([O-])C(F)(F)F [Example 33, (R)—N-(7-((15-(3-((4-fluorobenzyl)oxy)phenoxy)-14-hydroxy-3,6,9-trioxa-12-azapentadecyl) (methyl)amino)-3H-phenothiazin-3-ylidene)-N-methylmethanaminium 2,2,2-trifluoroacetate]
degradation of target protein p-53 (decrease in level vs Control) (p-53): can be degraded

— patent US12383624B2, “Cargo delivery system and composition comprising the same” (SEOUL NATIONAL UNIVERSITY R&DB FOUNDATION, priority 2018, dated 2025)
